Experimental findings from PMC11123841, “Discovery and Synthesis of Hydroxy-L-Proline Blockers of the Neutral Amino Acid Transporters SLC1A4 (ASCT1) and SLC1A5 (ASCT2)” (Molecules, 2024) are described below.

“And” between values parts separate entries of the source, which are not always exact repeats. Equal entries are not always repeated.

Series [1] concerns the target T1, SLC1A4 (hASCT1) (Homo sapiens, UniProt P43007).
T1 construct: expressed in transfected cells; host or cells: Xenopus laevis oocytes (cRNA injection)
T1 sequence (P43007 1-532): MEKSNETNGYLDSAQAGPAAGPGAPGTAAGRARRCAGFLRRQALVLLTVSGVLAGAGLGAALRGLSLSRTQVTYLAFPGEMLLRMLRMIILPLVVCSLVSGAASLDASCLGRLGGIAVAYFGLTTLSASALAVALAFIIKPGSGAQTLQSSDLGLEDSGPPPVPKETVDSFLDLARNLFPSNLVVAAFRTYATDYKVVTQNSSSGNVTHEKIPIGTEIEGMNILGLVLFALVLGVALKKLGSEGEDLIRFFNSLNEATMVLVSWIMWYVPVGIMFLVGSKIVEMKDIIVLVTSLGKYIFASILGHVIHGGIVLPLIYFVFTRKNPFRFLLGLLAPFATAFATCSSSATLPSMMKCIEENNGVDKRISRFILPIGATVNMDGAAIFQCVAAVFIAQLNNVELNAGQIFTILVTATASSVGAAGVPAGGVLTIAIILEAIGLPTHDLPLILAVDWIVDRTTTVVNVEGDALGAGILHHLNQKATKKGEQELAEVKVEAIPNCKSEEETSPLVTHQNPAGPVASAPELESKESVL
The experiment in a line: TEVC substrate-induced SCN- anion currents in Xenopus oocytes. In kind it is cell-based. On the procedure:
(§1) Additionally, 4-HP applied at 1 mM was used to assess activity at the glutamate transporters SLC1A3 or SLC1A1.
(§2) Uptake was halted by washing 3 times with 4 °C ND96 buffer. Oocytes were then lysed in 0.1% Triton X-100, and radioactivity was counted via liquid scintillation. Dose response curves were generated by fitting fractional inhibition (I) to the expression I = Imax × [inhibitor]/([inhibitor] + IC50).
(§3) Two-electrode voltage clamp (TEVC) transporter currents were recorded with a GeneClamp 500 amplifier and Digidata 1320A analog–digital interface (Molecular Devices, San Jose, CA, USA). Electrodes (0.2–1.0 MΩ) were filled with 3M KCl and the recording chamber was grounded with an agar bridge. Data were acquired with Axograph (v1.7.6) and LabChart (v7) and analyzed with Kaleidagraph software (v4.1) (Synergy, Reading, PA, USA). Uncoupled anion currents associated with the transport of substrate and block of SLC1A4 or SLC1A5 mediated leak conductance were recorded in the presence of Ringer with 50% substitution of NaCl by NaSCN to amplify the non-transported anion conductance.
(§4) (A) SLC1A4 dose response curves for substrate activated anion currents using two-electrode voltage clamp of Xenopus lavies oocytes (−30 mV). […] (B) SLC1A5 dose response curve for substrate activated anion currents using two-electrode voltage clamp (−30 mV). […] Extracellular solutions contained 50 mM NaSCN.

Series [2] concerns the target T2, SLC1A5 (mASCT2) (Mus musculus, UniProt P51912).
T2 construct: expressed in transfected cells; host or cells: Xenopus laevis oocytes (cRNA injection)
T2 sequence (P51912 1-553): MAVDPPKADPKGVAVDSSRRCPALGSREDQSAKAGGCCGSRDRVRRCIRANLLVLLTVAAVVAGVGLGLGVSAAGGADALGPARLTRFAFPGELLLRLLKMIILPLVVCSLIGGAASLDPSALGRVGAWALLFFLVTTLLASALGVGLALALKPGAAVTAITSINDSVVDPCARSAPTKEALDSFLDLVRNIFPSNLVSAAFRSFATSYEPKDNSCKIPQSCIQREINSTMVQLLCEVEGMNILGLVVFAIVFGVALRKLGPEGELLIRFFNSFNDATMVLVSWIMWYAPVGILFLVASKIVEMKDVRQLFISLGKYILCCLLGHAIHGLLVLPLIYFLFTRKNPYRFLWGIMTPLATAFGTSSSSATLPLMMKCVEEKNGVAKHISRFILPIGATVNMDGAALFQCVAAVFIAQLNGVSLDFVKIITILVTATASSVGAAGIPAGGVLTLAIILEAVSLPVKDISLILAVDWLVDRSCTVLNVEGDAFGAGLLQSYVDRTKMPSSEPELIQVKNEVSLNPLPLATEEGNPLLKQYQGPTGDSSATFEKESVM
Described as above. The format is cell-based. Here is the method: as §1, §2, §3, §4

The target of series [3] is T3, SLC1A4 (Homo sapiens, UniProt P43007).
T3 construct: expressed in transfected cells; host or cells: Xenopus laevis oocytes (cRNA injection)
T3 sequence (P43007 1-532): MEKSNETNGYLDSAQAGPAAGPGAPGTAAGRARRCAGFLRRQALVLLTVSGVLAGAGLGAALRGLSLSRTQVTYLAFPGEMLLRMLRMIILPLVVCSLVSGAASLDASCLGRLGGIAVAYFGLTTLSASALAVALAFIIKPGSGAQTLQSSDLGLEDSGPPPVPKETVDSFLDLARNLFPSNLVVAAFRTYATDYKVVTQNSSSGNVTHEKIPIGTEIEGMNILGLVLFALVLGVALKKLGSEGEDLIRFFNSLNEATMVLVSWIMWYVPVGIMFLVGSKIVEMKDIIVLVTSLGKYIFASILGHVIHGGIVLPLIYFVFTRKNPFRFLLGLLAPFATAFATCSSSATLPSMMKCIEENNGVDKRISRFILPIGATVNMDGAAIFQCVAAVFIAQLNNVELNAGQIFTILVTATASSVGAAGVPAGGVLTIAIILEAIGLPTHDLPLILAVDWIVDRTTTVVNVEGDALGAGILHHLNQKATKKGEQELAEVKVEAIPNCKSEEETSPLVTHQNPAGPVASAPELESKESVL
The experiment in a line: TEVC block of anion leak conductance in oocytes. The following applies: for SLC1A4 Ki (µM): from dose–response of blocked anion conductance, compounds tested only once without standard error. In kind it is cell-based.
Description: (§5) The currents induced by substrates and blocked by hydroxyproline analogs shared a reversal potential shown in the current/voltage relationship consistent with the conductance originating from the same ion pore (Figure 3, inset). […] The observed dose–response relationships are independent of competing substrates, and thus provide a direct measure of the equilibrium inhibition constant (Ki). Each synthetic hydroxyproline analog was functionally assessed for its capacity to inhibit SLC1A4 and SLC1A5 leak currents with affinities reported in Table 1 as determined or approximated Ki.
as §3
(§6) Figure 3 AHPCs block a leak current in SLC1A4 and SLC1A5. […] Inset (A): The current and voltage relationship for SLC1A4 currents activated by Ala or blocked by 14b are determined by subtracting voltage jumps in buffer.

Series [4] has as its target T4, mSLC1A5 (Mus musculus, UniProt P51912).
T4 construct: expressed in transfected cells; host or cells: Xenopus laevis oocytes (cRNA injection)
T4 sequence (P51912 1-553): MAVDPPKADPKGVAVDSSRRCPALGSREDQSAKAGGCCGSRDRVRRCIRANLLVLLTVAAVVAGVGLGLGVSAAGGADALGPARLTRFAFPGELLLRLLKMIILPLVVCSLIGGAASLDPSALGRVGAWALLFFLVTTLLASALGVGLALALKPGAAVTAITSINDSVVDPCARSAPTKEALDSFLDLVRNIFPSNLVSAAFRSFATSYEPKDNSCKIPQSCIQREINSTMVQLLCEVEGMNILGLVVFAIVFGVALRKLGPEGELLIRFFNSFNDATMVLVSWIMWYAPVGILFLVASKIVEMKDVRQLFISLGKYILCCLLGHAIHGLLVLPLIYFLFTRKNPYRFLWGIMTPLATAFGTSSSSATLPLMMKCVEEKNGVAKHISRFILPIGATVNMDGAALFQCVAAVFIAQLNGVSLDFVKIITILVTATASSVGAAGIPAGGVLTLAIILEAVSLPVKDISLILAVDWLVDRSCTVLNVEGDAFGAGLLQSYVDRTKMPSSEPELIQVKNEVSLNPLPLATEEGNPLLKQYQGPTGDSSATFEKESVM
Kind of series: TEVC block of anion leak conductance in oocytes. In kind it is cell-based. As to conditions: SLC1A5 (transporter not given).
Description: as §5, §3, §6

Substrate in series [5]: NC(=O)CC[C@H](N)C(=O)O
Kind of series: TEVC substrate-induced SCN- anion currents in Xenopus oocytes. In kind it is cell-based, mouse. The following applies: other: SLC1A5; substrate activated anion currents, TEVC −30 mV, 50 mM NaSCN, Michaelis-Menten fit.

Substrate in series [6]: O=C(O)[C@@H]1C[C@@H](O)CN1
The series is described as above. The format is cell-based, mouse. The following applies: other: SLC1A5; substrate activated anion currents, TEVC −30 mV, 50 mM NaSCN, Michaelis-Menten fit.

Substrate in series [7]: O=C(O)[C@H]1NCC[C@@H]1O
The series is described as above. The format is cell-based, mouse. As to conditions: other: SLC1A5; substrate activated anion currents, TEVC −30 mV, 50 mM NaSCN, Michaelis-Menten fit.

Substrate in series [8]: C[C@H](N)C(=O)O
The experiment in a line: cells, lysate or membranes. The following applies: other: SLC1A4; substrate activated anion currents, TEVC −30 mV, 50 mM NaSCN, Michaelis-Menten fit.

Substrate in series [9]: O=C(O)[C@@H]1C[C@@H](O)CN1
The experiment in a line: TEVC substrate-induced SCN- anion currents in Xenopus oocytes. In kind it is cell-based, human. The following applies: other: SLC1A4; substrate activated anion currents, TEVC −30 mV, 50 mM NaSCN, Michaelis-Menten fit.

Substrate in series [10]: O=C(O)[C@H]1NCC[C@@H]1O
The description is as above. In kind it is cell-based, human. As to conditions: other: SLC1A4; substrate activated anion currents, TEVC −30 mV, 50 mM NaSCN, Michaelis-Menten fit.

Broadly, the Km is the substrate concentration at which the rate is half of its maximum.

As for `O=C(O)[C@@H]1C[C@H](O)CN1` [compound 1, cis-4-hydroxy-L-proline, reference compound], the “substrate currents” value in series [1] and in series [2] was “did not induce detectable substrate currents” each time. In addition, the “concentration at which leak anion current is blocked” value in [3] (SLC1A4 (transporter not given)) and in series [4] was “above 500 µM” each time.
Consider `C[C@]1(O)CN[C@H](C(=O)O)C1` [compound 26, cis-4-methyl-trans-4-hydroxy-L-proline], for which the “SLC1A4 Ki (µM)” value in [3] was “No Block”.
Take `C[C@@]1(O)CN[C@H](C(=O)O)C1` [compound 27, cis-4-hydroxy-trans-4-methyl-L-proline]: in [3], the “SLC1A4 Ki (µM)” value is recorded as “No Block”.

B1: SLC1A5 (mASCT2) (Mus musculus) (protein)
chain: MAVDPPKADPKGVAVDSSRRCPALGSREDQSAKAGGCCGSRDRVRRCIRANLLVLLTVAAVVAGVGLGLGVSAAGGADALGPARLTRFAFPGELLLRLLKMIILPLVVCSLIGGAASLDPSALGRVGAWALLFFLVTTLLASALGVGLALALKPGAAVTAITSINDSVVDPCARSAPTKEALDSFLDLVRNIFPSNLVSAAFRSFATSYEPKDNSCKIPQSCIQREINSTMVQLLCEVEGMNILGLVVFAIVFGVALRKLGPEGELLIRFFNSFNDATMVLVSWIMWYAPVGILFLVASKIVEMKDVRQLFISLGKYILCCLLGHAIHGLLVLPLIYFLFTRKNPYRFLWGIMTPLATAFGTSSSSATLPLMMKCVEEKNGVAKHISRFILPIGATVNMDGAALFQCVAAVFIAQLNGVSLDFVKIITILVTATASSVGAAGIPAGGVLTLAIILEAVSLPVKDISLILAVDWLVDRSCTVLNVEGDAFGAGLLQSYVDRTKMPSSEPELIQVKNEVSLNPLPLATEEGNPLLKQYQGPTGDSSATFEKESVM
notes: expressed in transfected cells; host or cells: Xenopus laevis oocytes (cRNA injection)
On to B1, for which the Km in series [5] was 47.4 ± 4.6 µM; in series [6], 76.3 ± 11.0 µM; in [7], 28.6 ± 6.4 µM.

B2: SLC1A4 (hASCT1) (Homo sapiens) (protein)
chain: MEKSNETNGYLDSAQAGPAAGPGAPGTAAGRARRCAGFLRRQALVLLTVSGVLAGAGLGAALRGLSLSRTQVTYLAFPGEMLLRMLRMIILPLVVCSLVSGAASLDASCLGRLGGIAVAYFGLTTLSASALAVALAFIIKPGSGAQTLQSSDLGLEDSGPPPVPKETVDSFLDLARNLFPSNLVVAAFRTYATDYKVVTQNSSSGNVTHEKIPIGTEIEGMNILGLVLFALVLGVALKKLGSEGEDLIRFFNSLNEATMVLVSWIMWYVPVGIMFLVGSKIVEMKDIIVLVTSLGKYIFASILGHVIHGGIVLPLIYFVFTRKNPFRFLLGLLAPFATAFATCSSSATLPSMMKCIEENNGVDKRISRFILPIGATVNMDGAAIFQCVAAVFIAQLNNVELNAGQIFTILVTATASSVGAAGVPAGGVLTIAIILEAIGLPTHDLPLILAVDWIVDRTTTVVNVEGDALGAGILHHLNQKATKKGEQELAEVKVEAIPNCKSEEETSPLVTHQNPAGPVASAPELESKESVL
notes: as for B1
As to B2, the Km in series [8] was 40.0 ± 1.8 µM and 40.3 µM; in series [9], 17.1 ± 0.8 µM; in series [10] it was 13.5 ± 1.8 µM.
